# Experimental data reported in US11840686B2, “Modulation of prekallikrein (PKK) expression” (Ionis Pharmaceuticals, Inc., priority 2013, dated 2023).
# Tests used:
# [1] = Hematological parameters in cynomolgus monkeys (Example 8); settings: cynomolgus monkey, 40 mg/kg sc, day 87 or day 88
# [2] = Kidney function: plasma BUN and creatinine in cynomolgus monkeys (Example 8); settings: 40 mg/kg s.c.
# Experimental: (§1) Prior to the study, the monkeys were kept in quarantine for a 30-day period, during which the animals were observed daily for general health. The monkeys were 2-4 years old and weighed between 2 and 4 kg. Ten groups of four randomly assigned male cynomolgus monkeys each were injected subcutaneously with ISIS oligonucleotide or PBS. PBS solution or ISIS oligonucleotides at a dose of 40 mg/kg were administered initially with a loading regimen consisting of four doses on the first week of the study (days 1, 3, 5, and 7), followed by a maintenance regimen consisting of once weekly administration starting on Day 14 (weeks 2 to 13). Subcutaneous injections were performed in clock-wise rotations at 4 sites on the back; one site per dose. The injection sites were delineated by tattoo, while sedated using ketamine, and were separated by a minimum of 3 cm.
# To evaluate the effect of ISIS oligonucleotides on kidney function, the monkeys were fasted overnight. Approximately, 1.5 mL of blood samples were collected from all the study groups. Blood was collected in tubes without anticoagulant for serum separation. The tubes were kept at room temperature for a minimum of 90 min and then centrifuged at 3,000 rpm for 10 min. Levels of BUN and creatinine were measured using a Toshiba 120FR NEO chemistry analyzer (Toshiba Co., Japan).
# [3] = tested on: PKK protein; assay: Plasma PKK protein levels in human KLKB1 transgenic mice (Example 7); format: in vivo; settings: transgenic mice
# Method in brief: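 Human KLKB1 transgenic mice dosed subcutaneously twice weekly for 3 weeks with antisense oligonucleotides at 2.5, 5.0, 10 or 20 mg/kg/week. Plasma collected 48 hours after the final dose; PKK protein expressed as percent inhibition relative to PBS-treated controls.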
# [4] = Liver function markers in cynomolgus monkeys (Example 8); settings: cynomolgus monkey plasma, 40 mg/kg sc
# Experimental: as §1
# To evaluate the effect of ISIS oligonucleotides on hepatic function, the monkeys were fasted overnight. Approximately, 1.5 mL of blood samples were collected from all the study groups. Blood was collected in tubes without anticoagulant for serum separation. The tubes were kept at room temperature for a minimum of 90 min and then centrifuged at 3,000 rpm for 10 min. Levels of various liver function markers were measured using a Toshiba 120FR NEO chemistry analyzer (Toshiba Co., Japan).
# [5] = tested on: human PKK mRNA; assay: Human PKK mRNA in liver of human KLKB1 transgenic mice (Example 7); format: in vivo; settings: transgenic mice
# Method in brief: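 Transgenic mice carrying a 37,390 bp human KLKB1 fragment dosed subcutaneously twice weekly for 3 weeks at 2.5, 5.0, 10 or 20 mg/kg/week; PBS controls. Liver harvested 48 h after the last dose. Human PKK mRNA measured by real-time PCR and expressed as % inhibition versus PBS.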
# [6] = tested on: PKK mRNA; assay: PKK mRNA in cynomolgus monkey liver (Example 8); format: in vivo; settings: primates, Example 8
# Method in brief: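 Cynomolgus monkeys were dosed with human antisense oligonucleotides cross-reactive with the rhesus sequence. Liver RNA taken on day 87 or 88, 48 h after the last dose, was assayed by real-time PCR (primer probe set RTS3455) and normalized to cyclophilin. Values are percent PKK mRNA inhibition versus PBS control.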
# [7] = tested on: PKK protein; assay: PKK protein in cynomolgus monkey plasma by ELISA (Example 8); format: in vivo; settings: 40 mg/kg sc
# Experimental: Approximately 0.9 mL of blood was collected each time from all available animals at pre-dose, day 17, day 31, day 45, day 59, and day 73, and placed in tubes containing 3.2% sodium citrate. The tubes were centrifuged (3000 rpm for 10 min at room temperature) to obtain plasma. PKK protein levels were measured in the plasma by ELISA. The results are presented in Table 52, expressed as percentage inhibition compared to the PBS control levels.
# [8] = Urine protein/creatinine ratio in cynomolgus monkeys (Example 8); settings: cynomolgus monkey, 40 mg/kg sc
# Experimental: as §1
# Kidney function was also assessed by urinalysis. Fresh urine from all animals was collected using a clean cage pan on wet ice. Food was removed overnight the day before fresh urine collection was done but water was supplied. The total protein and creatinine levels were measured using a Toshiba 120FR NEO automated chemistry analyzer (Toshiba Co., Japan) and the protein to creatinine ratio was calculated.
# [9] = Tolerability / clinical observation of cynomolgus monkeys (Example 8); format: in vivo, cynomolgus monkey; settings: primates, Example 8
# Experimental: Cynomolgus monkeys were treated with ISIS antisense oligonucleotides selected from studies described above. Antisense oligonucleotide efficacy and tolerability were evaluated. The human antisense oligonucleotides tested are cross-reactive with the rhesus genomic sequence (GENBANK Accession No. NW_001118167.1 truncated from nucleotides 2358000 to 2391000 and designated herein as SEQ ID NO: 18).
# During the study period, the monkeys were observed a minimum of once daily for signs of illness or distress. Any animal experiencing more than momentary or slight pain or distress due to the treatment, injury or illness was promptly reported to the responsible veterinarian and the Study Director. Any animal in poor health or in a possible moribund condition was identified for further monitoring and possible euthanasia. […] The protocols described in the Example were approved by the Institutional Animal Care and Use Committee (IACUC).
# [10] = tested on: human PKK mRNA; assay: Antisense inhibition of human PKK mRNA in HepaRG cells, 1,000 nM, MOE/deoxy/cEt oligonucleotides (Example 3); format: cell-based; settings: HepaRG cells, 1,000 nM, electroporation, 24 hours
# Method in brief: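 Readout is percent PKK mRNA reduction against untreated controls, by real-time PCR (RTS3454) adjusted for total RNA via RIBOGREEN. Oligonucleotides, phosphorothioate gapmers of 16 nucleosides with cEt, MOE and deoxy sugars, were delivered at 1,000 nM by electroporation to 20,000 HepaRG cells/well for roughly 24 h.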
# [11] = C-reactive protein and complement C3 levels in cynomolgus monkeys (Example 8); settings: cynomolgus monkey plasma, 40 mg/kg sc
# Experimental: as §1
# To evaluate any inflammatory effect of ISIS oligonucleotides in cynomolgus monkeys, the monkeys were fasted overnight. Approximately, 1.5 mL of blood samples were collected from all the study groups. Blood was collected in tubes without anticoagulant for serum separation. The tubes were kept at room temperature for a minimum of 90 min and then centrifuged at 3,000 rpm for 10 min. C-reactive protein (CRP), which is synthesized in the liver and which serves as a marker of inflammation, was measured using a Toshiba 120FR NEO chemistry analyzer (Toshiba Co., Japan). Complement C3 was also measured similarly, and the data is presented as a percentage of baseline values.
# [12] = 2.5 mg/kg/week s.c. twice a week for 3 weeks
# [13] = 5.0 mg/kg/week s.c. twice a week for 3 weeks
# [14] = 10 mg/kg/week s.c. twice a week for 3 weeks
# [15] = 20 mg/kg/week s.c. twice a week for 3 weeks
substance,measurement,setting,value
mCes Ges Aks Tds Ads Tds mCds Ads Tds Gds Ads Tds Tds mCks mCks mCe [ISIS 548048],HCT,[1],44%
same,Hemoglobin,[1],13.4 g/dL
same,Platelets,[1],393000 µL⁻¹
same,RBC,[1],5.9e+06 µL⁻¹
same,WBC,[1],11000 µL⁻¹
same,Plasma BUN,[2],21.9 mg/dL
same,Plasma Creatinine,[2],0.9 mg/dL
same,human PKK protein inhibition,[3]; [12],23%
same,human PKK protein inhibition,[3]; [13],70%
same,human PKK protein inhibition,[3]; [14],89%
same,human PKK protein inhibition,[3]; [15],98%
same,ALT,[4],47 IU/L
same,AST,[4],44 IU/L
same,Albumin,[4],4.2 g/dL
same,human PKK mRNA inhibition,[5]; [12],7%
same,human PKK mRNA inhibition,[5]; [13],77%
same,human PKK mRNA inhibition,[5]; [14],72%
same,human PKK mRNA inhibition,[5]; [15],80%
same,inhibiting PKK mRNA and protein expression in primates,[6],effective for inhibiting PKK mRNA and protein expression
same,PKK protein level reduction (%) in plasma relative to control levels,[7]; Day 17,90%
same,PKK protein level reduction (%) in plasma relative to control levels,[7]; Day 31,93%
same,PKK protein level reduction (%) in plasma relative to control levels,[7]; Day 45,95%
same,PKK protein level reduction (%) in plasma relative to control levels,[7]; Day 59,95%
same,PKK protein level reduction (%) in plasma relative to control levels,[7]; Day 73,95%
same,Urine protein/creatinine ratio,[8],0.03
same,tolerability in primates,[9],tolerable in primates
same,mRNA inhibition,[10],84%
same,C3 (% of baseline),[11],69 % of baseline
same,CRP,[11],0.2 mg/dL
